“Also recorded” adds a separate entry of the source. Where a name gives a salt, the structure may show the parent alone. Read-outs that look alike come from different tables or passages of the source. Non-standard residues stand in square brackets, D forms with d. Residues, ends and D or L forms follow the SMILES beside them. *: point of attachment. pNA = O=[N+]([O-])c1ccc(N*)cc1; Tos = Cc1ccc(S(=O)(=O)*)cc1; Bz = O=C(c1ccccc1)*
T1: recombinant ISP1 (Mus musculus, UniProt Q924N9)
T1 construct: Myc (C); His6 (C); made in house; host or cells: Pichia pastoris SMD1168
T1 sequence (Q924N9 31-274 limits assumed): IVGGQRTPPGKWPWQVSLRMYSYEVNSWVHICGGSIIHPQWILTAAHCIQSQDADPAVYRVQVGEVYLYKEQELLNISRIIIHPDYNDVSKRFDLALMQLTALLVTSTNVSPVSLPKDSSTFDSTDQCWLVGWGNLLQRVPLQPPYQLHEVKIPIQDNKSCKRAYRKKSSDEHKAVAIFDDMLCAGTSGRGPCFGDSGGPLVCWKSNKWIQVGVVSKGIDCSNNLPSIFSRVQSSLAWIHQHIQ


Tests used:
recombinant ISP1 [1] = target: T1, recombinant ISP1; assay: Chromogenic substrate kinetics of recombinant ISP1; format: biochemical; details: for Hydrolysis of chromogenic substrate by rISP1: result in words; for Michaelis Menton Constant (Km) / Turnover No. (kcat) / Km: substrate of recombinant ISP1, 25 mM Tris.Cl pH 8.0, room temperature; for Turnover No. (kcat): [E] 6.5 uM; for Km: read-out: Michaelis Menton Constant (Km)
Protocol: (§1) p-Nitroanilide substrates, Valine-Proline-Arginine-Amino methyl coumarin (VPR-AMC), Benzamidine Hydrochloride, TLCK (N -p-tosyl-L-lysine chloromethyl ketone), APMSF (4-Amidino-Phenyl)-Methane-Sulfonyl Fluoride), Trypsin Soybean Inhibitor (TSI) and Gabexate mesylate were obtained from Sigma Aldrich and Co. Oakville, ON Canada. Chromogenic assays were performed using the p-Nitroanilide/methyl-naphthylamide conjugated peptidic substrates. The reaction conditions used were: 25 mM Tris.Cl (pH 8.0) buffer with 10 mM EDTA reaction buffer, in a total reaction volume of 0.5 mL including varying concentrations of the substrates and enzyme sample. The reactions were done at room temperature in a glass cuvette (1 cm path length), and scanned at wavelength of 405 nm (in case of p-nitroanilide conjugated substrates) and 540 nm (in case of methyl-naphthylamide substrates) using a spectrophotometer. 1 Unit of enzyme is defined as the amount of enzyme capable of the breakdown of 1 micromole of substrate/min.
(§2) The catalytic activity of recombinant ISP1 with various small chromogenic peptide substrates was characterized by measuring enzyme cleavage at differing substrate concentrations and plotting enzyme activity [V] vs. substrate concentration [S] and calculating Michaelis Menten constant (Km). The Km was calculated using the Michaelis Menten equation (Km = [S] at ½ Vmax). Sigma plot was used for plotting the values obtained and determining Michaelis Menten Constant (Km). Inhibition of proteolytic activity of recombinant ISP1 was determined by measuring enzyme activity in the presence of varying concentrations of serine proteinase inhibitors. 2 mM BAPNA and 150 uM VPR-AMC were employed for enzyme assays in these inhibition studies. Sigma plot was used for plotting the values obtained in order to determine dissociation constant (Ki). Enzyme concentration [E] used for these experiments was 6.5 uM. This value was employed for calculating turnover number (kcat) and enzyme efficiency represented by kcat/Km ratio.

recombinant ISP1 [2] = target: T1, recombinant ISP1; assay: Inhibition of recombinant ISP1 by general serine proteinase inhibitors; format: biochemical; details: for Effect on enzyme activity of rISP1: 2 mM BAPNA as well as 150 µM VPR-AMC as substrate, result in words; for Ki: read-out: Ki (Apparent Ki)
Protocol: as §1, §2

Molecule	Hydrolysis of chromogenic substrate by rISP1 (recombinant ISP1 [1])	Turnover No. (kcat) (recombinant ISP1 [1])	Effect on enzyme activity of rISP1 (recombinant ISP1 [2])	also measured
C[C@H](N)C(=O)Nc1ccc([N+](=O)[O-])cc1 [Alanine p-nitroanilide]	no reaction	Nil		Michaelis Menton Constant (Km) (recombinant ISP1 [1]): Nil
N=C(N)c1ccccc1 [Benzamidine Hydrochloride]			no noticeable effect	Ki (Apparent Ki) (recombinant ISP1 [2]; substrate BAPNA (2 mM)): No inhibition
CC(C)C[C@H](NC(=O)[C@@H](NC(=O)N[C@@H](Cc1ccccc1)C(=O)O)[C@@H]1CCN=C(N)N1)C(=O)N[C@H](C=O)Cc1ccccc1 [Chymostatin]			inhibited the enzyme activity	Effect on enzyme activity of rISP1 (recombinant ISP1 [2]; listed as chymostatin): strong inhibitory activity; Ki (recombinant ISP1 [2]; substrate BAPNA (2 mM)): 220 µM
CCOC(=O)c1ccc(OC(=O)CCCCCN=C(N)N)cc1.CS(=O)(=O)O [Gabexate mesylate]			inhibited the enzyme activity	Effect on enzyme activity of rISP1 (recombinant ISP1 [2]; listed as gabexate mesylate): strong inhibitory activity; Ki (recombinant ISP1 [2]; substrate BAPNA (2 mM)): 1700 µM
CC(=O)N[C@@H](CC(C)C)C(=O)N[C@@H](CC(C)C)C(=O)N[C@H](C=O)CCCNC(=N)N [Leupeptin]			no noticeable effect	Ki (Apparent Ki) (recombinant ISP1 [2]; substrate BAPNA (2 mM)): No inhibition
CC(=O)O.Cc1ccc(S(=O)(=O)NCC(=O)N2CCC[C@H]2C(=O)N[C@@H](CCCCN)C(=O)Nc2ccc([N+](=O)[O-])cc2)cc1 [N(p-tosyl)-glycine-proline-lysine p-nitroanilide acetate] (Tos-Gly-Pro-Lys-pNA)	no enzyme activity	Nil		Michaelis Menton Constant (Km) (recombinant ISP1 [1]): Nil
Cl.N=C(N)NCCC[C@H](NC(=O)c1ccccc1)C(=O)Nc1ccc([N+](=O)[O-])cc1 [N-Benzoyl Argininep-nitroanilide (BAPNA), N-Benzoyl-L- arginine p-nitroanilide hydrochloride]	hydrolyzed	2.2 s⁻¹		Km (recombinant ISP1 [1]): 610 µM
CC[C@H](C)[C@H](NC(=O)c1ccccc1)C(=O)N[C@@H](Cc1ccccc1)C(=O)N[C@@H](CCCCN)C(=O)Nc1ccc([N+](=O)[O-])cc1.Cl [N-Benzoyl-isoleucine-phenylalanine-lysine p-nitroanilide hydrochloride] (Bz-Ile-Phe-Lys-pNA)	hydrolyzed	3.9 s⁻¹		Km (recombinant ISP1 [1]): 9600 µM
CC(C)[C@H](NC(=O)[C@H](Cc1ccccc1)NC(=O)c1ccccc1)C(=O)N[C@@H](CCCNC(=N)N)C(=O)Nc1ccc([N+](=O)[O-])cc1.Cl [N-Benzoyl-phenylalanine-valine-arginine p-nitroanilide hydrochloride] (Bz-Phe-Val-Arg-pNA)	hydrolyzed	0.14 s⁻¹		Km (recombinant ISP1 [1]): 360 µM
COc1cc(NC(=O)C(CCCNC(=N)N)NC(=O)C(CCCNC(=N)N)NC(=O)C(CCCNC(=N)N)NC(=O)OCc2ccccc2)cc2ccccc12 (stereo not shown) [N-CBZ-arginine-arginine-arginine-4-methoxy naphthylamide]	hydrolyzed	0.7 s⁻¹		Km (recombinant ISP1 [1]; listed as RRRmN): ~100 µM; Km (recombinant ISP1 [1]): 99 µM
C[C@H](NC(=O)CCC(=O)O)C(=O)N[C@@H](C)C(=O)N[C@@H](C)C(=O)Nc1ccc([N+](=O)[O-])cc1 [N-Succinyl-alanine-alanine-alanine p-nitroanilide]	no reaction	Nil		Michaelis Menton Constant (Km) (recombinant ISP1 [1]): Nil
O=S(=O)(F)Cc1ccccc1 [PMSF]			inhibited the enzyme activity; also recorded: strong inhibitory activity	Ki (recombinant ISP1 [2]; substrate VPR-AMC (0.15 mM)): 340 µM
Cc1ccc(S(=O)(=O)N[C@@H](CCCCN)C(=O)CCl)cc1 [TLCK, N -p-tosyl-L-lysine chloromethyl ketone]			inhibited the enzyme activity; also recorded: strong inhibitory activity	Ki (recombinant ISP1 [2]; substrate VPR-AMC (0.15 mM)): 30 µM
CC(C)C[C@H](NC(=O)[C@H](N)C(C)C)C(=O)N[C@@H](CCCCN)C(=O)Nc1ccc([N+](=O)[O-])cc1.Cl [Valine-Leucine-Lysinep-nitroanilide, H-D-valine-leucine-lysine p-nitroanilide hydrochloride] (H-[dV]-Leu-Lys-pNA)	no enzyme activity	Nil		Michaelis Menton Constant (Km) (recombinant ISP1 [1]): Nil
CC(C)[C@H](N)C(=O)N[C@@H](Cc1ccccc1)C(=O)N[C@@H](CCCCN)C(=O)Nc1ccc([N+](=O)[O-])cc1 [Valine-Phenylalanine-Lysine p-nitroanilide] (H-Val-Phe-Lys-pNA)	no enzyme activity	Nil		Michaelis Menton Constant (Km) (recombinant ISP1 [1]): Nil
Aprotinin			no noticeable effect	Ki (Apparent Ki) (recombinant ISP1 [2]; substrate BAPNA (2 mM)): No inhibition
α-1-Antitrypsin: general serine proteinase inhibitor			inhibited the enzyme activity	Effect on enzyme activity of rISP1 (recombinant ISP1 [2]; listed as α-1 antitrypsin): strong inhibitory activity; Ki (recombinant ISP1 [2]; substrate BAPNA (2 mM)): 2 µM
Recombinant human SLPI: recombinant human Secretory Leukocyte Protease Inhibitor (protein, UniProt P03973 26-132, looked up) Antileukoproteinase: SGKSFKAGVCPPKKSAQCLRYKKPECQSDWQCPGKKRCCPDTCGIKCLDPVDTPNPTRRKPGKCPVTYGQCLMLNPPNFCEMDGQCKRDLKCCMGMCGKSCVSPVKA			no noticeable effect	Ki (Apparent Ki) (recombinant ISP1 [2]; substrate BAPNA (2 mM)): No inhibition
Soybean Trypsin Inhibitor: general serine proteinase inhibitor (protein, UniProt P01070 25-205, looked up) Trypsin inhibitor A: DFVLDNEGNPLENGGTYYILSDITAFGGIRAAPTGNERCPLTVVQSRNELDKGIGTIISSPYRIRFIAEGHPLSLKFDSFAVIMLCVGIPTEWSVVEDLPEGPAVKIGENKDAMDGWFRLERVSDDEFNNYKLVFCPQQAEDDKCGDIGISIDHDDGTRRLVVSKNKPLVVQFQKLDKESL			inhibited the enzyme activity	Effect on enzyme activity of rISP1 (recombinant ISP1 [2]; listed as trypsin soybean inhibitor): strong inhibitory activity; Ki (recombinant ISP1 [2]; substrate BAPNA (2 mM)): 2.4 µM

Reference: article PMC3223204, “Implantation Serine Proteinase 1 Exhibits Mixed Substrate Specificity that Silences Signaling via Proteinase-Activated Receptors” (PLoS ONE, 2011)
